Results published in ChEMBL document CHEMBL1201862, “PubChem BioAssay data set” (2004).
Activity calls are given as the source filed them.

Legend:
[1] = molecular target: Dual specificity protein kinase CLK1 (Homo sapiens, UniProt P49759); assay: CLK1 kinase inhibitors, off-target check, dose response, selectivity assay for Dyrk1A inhibitor project, biochemical, cherry-picked samples (AID 588811)
[2] = molecular target: T1, Microphthalmia-associated transcription factor (Homo sapiens, UniProt O75030); assay: TRPM1 promoter luciferase signal decrease, dose response, MITF inhibitor project, cell-based, SK-MEL-5, cherry-picked, set 3 (AID 493073); type: functional
T1 sequence (O75030 whole entry): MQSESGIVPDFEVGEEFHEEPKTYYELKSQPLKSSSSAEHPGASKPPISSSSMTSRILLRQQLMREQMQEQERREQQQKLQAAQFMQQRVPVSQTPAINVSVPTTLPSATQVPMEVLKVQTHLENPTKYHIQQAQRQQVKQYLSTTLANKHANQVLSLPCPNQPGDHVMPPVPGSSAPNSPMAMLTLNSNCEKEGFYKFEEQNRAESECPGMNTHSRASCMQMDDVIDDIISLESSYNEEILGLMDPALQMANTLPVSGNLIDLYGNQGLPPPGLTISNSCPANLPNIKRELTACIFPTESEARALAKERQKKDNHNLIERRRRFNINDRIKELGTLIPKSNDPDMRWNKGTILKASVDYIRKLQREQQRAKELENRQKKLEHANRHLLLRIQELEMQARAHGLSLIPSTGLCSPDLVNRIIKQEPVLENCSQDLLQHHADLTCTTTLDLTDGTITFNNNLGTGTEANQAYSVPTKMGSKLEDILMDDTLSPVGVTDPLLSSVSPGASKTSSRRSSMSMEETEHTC

[3] = system: BJ; assay: cytotoxicity toward BJ-TERT fibroblasts, dose response, cell-based, RAS-independent, luminescence (AID 1933); type: functional; settings: Homo sapiens
[4] = system: BJ; assay: cytotoxicity toward Ras-transformed BJeLR fibroblasts, dose response, cell-based, alamar blue fluorescence, cherrypicked samples (AID 2631); type: functional; settings: Homo sapiens;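 also: confirmatory dose-response assay in RAS-dependent BJ fibroblasts engineered with TERT, LT and ST, with cytotoxicity read by fluorescence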
[5] = system: BJ; assay: cytotoxicity toward BJ-TERT-LT-ST fibroblasts, dose response, cell-based, RAS-independent, luminescence (AID 1935); type: functional; settings: Homo sapiens;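 also: BJ fibroblasts immortalized with TERT plus LT and ST oncogenes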
[6] = molecular target: Paired box protein Pax-8 (Homo sapiens, UniProt Q06710); assay: inhibitors of PAX8-driven TPO luciferase reporter, dose response, RMG-I cells, cherry-pick (AID 687027); type: functional, cell-based;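 also: luciferase reporter driven by Pax8 target thyroperoxidase promoter measured by SteadyGlo luminescence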
Paired box protein Pax-8, sequence (Q06710 whole entry): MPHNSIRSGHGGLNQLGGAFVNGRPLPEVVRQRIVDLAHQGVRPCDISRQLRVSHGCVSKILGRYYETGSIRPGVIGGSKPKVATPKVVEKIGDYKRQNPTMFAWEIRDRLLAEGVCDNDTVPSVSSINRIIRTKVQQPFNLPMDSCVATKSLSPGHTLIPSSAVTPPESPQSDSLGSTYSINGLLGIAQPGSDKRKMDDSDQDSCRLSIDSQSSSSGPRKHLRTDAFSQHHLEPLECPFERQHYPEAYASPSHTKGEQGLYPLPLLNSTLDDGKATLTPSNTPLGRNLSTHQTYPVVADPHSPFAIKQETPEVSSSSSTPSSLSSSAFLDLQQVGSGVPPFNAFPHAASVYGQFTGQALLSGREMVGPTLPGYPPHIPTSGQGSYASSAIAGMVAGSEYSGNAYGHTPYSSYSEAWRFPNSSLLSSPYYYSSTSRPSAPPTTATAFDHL

[7] = cytotoxicity toward DRD oncogenic fibroblasts, dose response, cell-based, non-viral oncogenic, luminescence (AID 1934); type: functional; settings: Homo sapiens
[8] = system: BJ; assay: cells; type: functional, cell-based; settings: Homo sapiens
[9] = system: A-375; assay: A375 melanoma cell viability reduction, dose response, counter-screen for MITF modulator project, cherry-pick samples, set 2 (AID 540335); type: functional, cell-based; settings: Homo sapiens
[10] = molecular target: Serine/threonine-protein phosphatase (Candida dubliniensis (strain CD36 / CBS 7987 / NCPF 3949 / NRRLY-17841) (Yeast), UniProt B9W6M3); assay: calcineurin pathway inhibitors in yeast reporter, dose response, S. cerevisiae, CDRE-lacZ, luminescence, secondary (AID 2388); type: functional, cell-based;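 also: yeast reporter cells carrying a calcineurin-responsive lacZ construct stimulated with calcium chloride; luminescent beta-galactosidase reporter signal in whole cells rather than isolated phosphatase activity; potency for inhibition where a drop in reporter signal means calcineurin blockade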
Serine/threonine-protein phosphatase, sequence (B9W6M3 whole entry): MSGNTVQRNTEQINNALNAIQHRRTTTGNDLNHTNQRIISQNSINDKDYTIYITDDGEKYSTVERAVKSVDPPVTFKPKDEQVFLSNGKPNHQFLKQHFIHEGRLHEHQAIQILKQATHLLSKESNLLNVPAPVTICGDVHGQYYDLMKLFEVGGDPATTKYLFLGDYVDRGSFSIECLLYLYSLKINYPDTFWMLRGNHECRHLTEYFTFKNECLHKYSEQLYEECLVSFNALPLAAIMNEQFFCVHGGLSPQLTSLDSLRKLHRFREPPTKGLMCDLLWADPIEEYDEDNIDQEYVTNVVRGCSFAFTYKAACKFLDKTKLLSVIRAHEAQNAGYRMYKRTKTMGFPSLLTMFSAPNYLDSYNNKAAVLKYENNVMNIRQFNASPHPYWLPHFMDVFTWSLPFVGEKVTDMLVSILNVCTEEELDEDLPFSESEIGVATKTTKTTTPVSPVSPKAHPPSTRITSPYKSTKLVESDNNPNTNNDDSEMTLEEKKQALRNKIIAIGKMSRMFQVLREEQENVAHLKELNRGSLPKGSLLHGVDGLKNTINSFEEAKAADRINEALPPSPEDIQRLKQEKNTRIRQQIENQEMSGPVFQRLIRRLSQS

[11] = molecular target: T2, Streptokinase A (Streptococcus pyogenes serotype M1, UniProt P10520); assay: S. pyogenes streptokinase expression inhibitors, potency, dose response, plasminogen activation absorbance, OD405 (AID 1914); type: functional, Streptococcus pyogenes M1 GAS;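 also: secreted streptokinase activity via plasminogen activation per viability signal from cell pellet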
T2 sequence (P10520 whole entry): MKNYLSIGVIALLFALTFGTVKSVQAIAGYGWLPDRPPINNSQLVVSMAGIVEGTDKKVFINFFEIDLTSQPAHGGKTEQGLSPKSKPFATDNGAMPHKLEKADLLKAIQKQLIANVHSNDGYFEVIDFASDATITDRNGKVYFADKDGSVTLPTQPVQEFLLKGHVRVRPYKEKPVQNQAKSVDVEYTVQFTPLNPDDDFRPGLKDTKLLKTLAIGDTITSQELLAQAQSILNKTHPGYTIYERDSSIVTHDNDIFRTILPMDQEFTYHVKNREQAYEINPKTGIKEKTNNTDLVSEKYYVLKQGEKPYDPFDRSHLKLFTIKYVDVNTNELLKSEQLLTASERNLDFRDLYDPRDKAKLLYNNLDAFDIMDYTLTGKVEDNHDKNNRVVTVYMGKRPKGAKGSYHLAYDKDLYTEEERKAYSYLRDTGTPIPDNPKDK

[12] = molecular target: ATP-dependent molecular chaperone HSP82 (Candida albicans (strain WO-1) (Yeast), UniProt C4YTQ8); assay: loss of DOC-induced GRE-beta-galactosidase reporter signal, dose response, Hsp90 inhibitor project, S. cerevisiae, luminescence (AID 2400); type: functional, cell-based;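 also: beta-galactosidase luminescence from glucocorticoid response element reporter as proxy for Hsp90 function; inhibitor potency where signal loss means Hsp90 inhibition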
ATP-dependent molecular chaperone HSP82, sequence (C4YTQ8 whole entry): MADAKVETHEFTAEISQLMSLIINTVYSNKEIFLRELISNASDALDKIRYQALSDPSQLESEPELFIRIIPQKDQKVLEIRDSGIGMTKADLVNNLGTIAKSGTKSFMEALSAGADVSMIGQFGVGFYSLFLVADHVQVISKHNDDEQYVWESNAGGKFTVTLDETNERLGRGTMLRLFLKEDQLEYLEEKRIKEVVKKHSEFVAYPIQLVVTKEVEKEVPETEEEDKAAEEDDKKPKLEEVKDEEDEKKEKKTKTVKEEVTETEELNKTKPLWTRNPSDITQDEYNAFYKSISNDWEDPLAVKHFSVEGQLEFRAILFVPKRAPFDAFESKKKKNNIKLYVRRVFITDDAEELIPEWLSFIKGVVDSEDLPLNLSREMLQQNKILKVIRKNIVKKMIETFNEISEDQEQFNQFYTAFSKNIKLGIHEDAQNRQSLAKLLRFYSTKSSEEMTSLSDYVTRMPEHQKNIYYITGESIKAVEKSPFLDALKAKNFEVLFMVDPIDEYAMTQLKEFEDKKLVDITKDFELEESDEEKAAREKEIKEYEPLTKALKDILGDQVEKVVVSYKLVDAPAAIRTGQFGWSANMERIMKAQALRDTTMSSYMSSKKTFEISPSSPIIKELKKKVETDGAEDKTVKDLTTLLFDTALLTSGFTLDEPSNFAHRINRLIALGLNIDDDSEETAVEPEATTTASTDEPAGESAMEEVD

[13] = system: INS1; assay: beta cell apoptosis inhibitors, cytokine rescue, dose response, luminescence, retest (AID 449756); type: functional, cell-based; settings: Rattus norvegicus;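 also: cell death triggered by IL-1 beta plus TNF-alpha plus IFN-gamma mixture; protective hits raise ATP signal compared with cytokine alone wells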
[14] = molecular target: T3, Neuropeptide Y receptor type 2 (Homo sapiens, UniProt P49146); assay: Fluorescence-based cell-based high-throughput dose response assay for agonists of NPY-Y2. [Related pubchem assays: 1703 (Screening assay (CNGC inhibitors).), 1359 (Screening assay (NPY-Y2 potentiators or agonists).), 1304 (Screening assay (NPY-Y1 potentiators or agonists).), 1710 (Screening assay (NPY-Y2 agonists).), 1791 (Summary AID.)]; type: functional
T3 sequence (P49146 whole entry): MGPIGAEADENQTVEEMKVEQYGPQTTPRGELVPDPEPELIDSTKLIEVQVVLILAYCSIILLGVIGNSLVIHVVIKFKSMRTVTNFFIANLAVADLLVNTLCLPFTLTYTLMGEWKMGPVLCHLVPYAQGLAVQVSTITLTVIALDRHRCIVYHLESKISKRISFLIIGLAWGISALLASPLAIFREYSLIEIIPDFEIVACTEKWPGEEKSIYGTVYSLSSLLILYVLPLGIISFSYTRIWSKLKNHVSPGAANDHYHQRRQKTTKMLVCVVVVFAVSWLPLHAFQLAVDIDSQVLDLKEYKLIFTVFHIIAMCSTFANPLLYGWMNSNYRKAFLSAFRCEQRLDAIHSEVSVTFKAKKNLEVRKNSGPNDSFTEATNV

[15] = HIV-1 Env-mediated cell fusion inhibitors, dose response, CCR5-tropic Env (AID 2279); type: functional
[16] = inhibitors of SNCA 5'UTR-driven reporter translation, confirmation, H4 neuroglioma cells, luminescence (AID 1988); type: functional, cell-based
[17] = molecular target: CAAX prenyl protease 2 (Homo sapiens, UniProt Q9Y256); assay: human Rce1 protease inhibitors, dose response, biochemical, yeast membranes, quenched-peptide fluorescence, cherry-pick (AID 588849)
CAAX prenyl protease 2, sequence (Q9Y256 whole entry, the tested form may be a part): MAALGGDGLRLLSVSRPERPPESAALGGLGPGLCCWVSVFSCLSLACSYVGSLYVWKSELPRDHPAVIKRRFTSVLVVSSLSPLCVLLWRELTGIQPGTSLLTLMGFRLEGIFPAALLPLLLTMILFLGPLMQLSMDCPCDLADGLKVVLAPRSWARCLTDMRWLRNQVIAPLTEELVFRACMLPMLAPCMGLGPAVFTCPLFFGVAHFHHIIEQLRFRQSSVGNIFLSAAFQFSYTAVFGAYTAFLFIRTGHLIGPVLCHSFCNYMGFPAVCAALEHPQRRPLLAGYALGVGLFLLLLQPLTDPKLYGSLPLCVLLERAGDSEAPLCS

[18] = off-target signal loss in HeLa-CEM21 co-culture – HeLa F-luc CTL cells, cherry-picked, counter-screen for HIV-1 Env fusion inhibitor project, dose response (AID 652040); type: functional, cell-based;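 also: potency for signal decrease marking cytotoxic or nonspecific inhibition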
[19] = CEM21 lymphoblast cell cytotoxicity, dose response, cytotoxicity control for viral fusion inhibitor project, CellTiter-Glo luminescence, cherry-picked (AID 652042); type: functional, cell-based;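 also: potency for signal decrease meaning cytotoxicity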
[20] = system: HEK293; assay: Fluorescence-based counterscreen for potentiators or agonists of NPY-Y2: cell-based high-throughput dose response assay to identify inhibitors of cyclic nucleotide gated ion channel (CNGC) activity. In this assay, the parental HEK293 cell line transfected with a cyclic-nucleotide gated ion channel (CNGC)-based cAMP sensor is used to measure inhibition of isoproterenol-induced CNGC activity by test compound.; type: functional; settings: Homo sapiens;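 also: stimulus is 1 µM isoproterenol at EC100 plus PDE inhibitor Ro 20-1724 at 25 µM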
[21] = inhibitors of HIV Env-driven cell fusion, dose response, cherry-pick (AID 652057); type: functional, cell-based
[22] = inhibitors of firefly luciferase expression or activity, dose response, H4 neuroglioma cells, luminescence (AID 1990); type: functional, cell-based
[23] = inhibitors of clade B AD8 Env fusion, dose response, cell-based, cherry-pick (AID 652062); type: functional;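 also: luciferase signal from cell-cell fusion driven by HIV-1 clade B AD8 Env; potency is for inhibitors of fusion seen as a drop in luminescence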
[24] = molecular target: T4, Aminopeptidase N (Plasmodium falciparum FcB1/Columbia, UniProt O96935); assay: P. falciparum M1AAP inhibitors, biochemical, fluorogenic H-Leu-NHMec substrate, 1536-well (AID 1445); set-up: species or system Plasmodium falciparum 3D7, 3D7
T4 sequence (O96935 whole entry): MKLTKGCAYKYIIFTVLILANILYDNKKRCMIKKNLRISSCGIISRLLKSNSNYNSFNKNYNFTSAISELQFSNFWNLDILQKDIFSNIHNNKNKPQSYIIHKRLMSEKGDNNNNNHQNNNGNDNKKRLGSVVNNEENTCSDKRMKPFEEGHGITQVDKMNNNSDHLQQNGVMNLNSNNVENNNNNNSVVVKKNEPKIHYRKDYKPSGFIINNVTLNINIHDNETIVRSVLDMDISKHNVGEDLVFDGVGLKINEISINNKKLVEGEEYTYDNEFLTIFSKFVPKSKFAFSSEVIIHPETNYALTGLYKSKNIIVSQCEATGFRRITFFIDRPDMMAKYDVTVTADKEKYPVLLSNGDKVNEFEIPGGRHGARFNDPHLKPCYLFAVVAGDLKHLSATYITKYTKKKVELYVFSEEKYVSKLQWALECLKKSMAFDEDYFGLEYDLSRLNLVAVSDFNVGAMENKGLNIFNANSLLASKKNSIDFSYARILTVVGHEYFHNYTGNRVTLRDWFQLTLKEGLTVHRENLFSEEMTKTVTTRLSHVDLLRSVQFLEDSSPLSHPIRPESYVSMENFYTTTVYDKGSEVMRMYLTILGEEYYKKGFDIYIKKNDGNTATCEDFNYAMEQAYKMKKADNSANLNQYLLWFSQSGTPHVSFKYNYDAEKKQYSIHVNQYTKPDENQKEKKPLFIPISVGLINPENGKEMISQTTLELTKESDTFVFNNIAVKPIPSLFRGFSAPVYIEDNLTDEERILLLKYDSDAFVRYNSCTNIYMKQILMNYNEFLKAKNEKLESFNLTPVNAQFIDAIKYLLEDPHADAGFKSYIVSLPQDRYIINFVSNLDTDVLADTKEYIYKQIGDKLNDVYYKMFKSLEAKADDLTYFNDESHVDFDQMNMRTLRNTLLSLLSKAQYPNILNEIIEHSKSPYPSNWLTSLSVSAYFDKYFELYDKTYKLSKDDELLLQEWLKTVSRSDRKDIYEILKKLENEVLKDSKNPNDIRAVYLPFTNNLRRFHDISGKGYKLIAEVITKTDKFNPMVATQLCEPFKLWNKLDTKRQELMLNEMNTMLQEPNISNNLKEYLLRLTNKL

[25] = molecular target: T5, Neuropeptide Y receptor type 1 (Homo sapiens, UniProt P25929); assay: Fluorescence-based counterscreen for agonists of NPY-Y2: cell-based high-throughput dose response assay for agonists of NPY-Y1.; type: functional
T5 sequence (P25929 whole entry): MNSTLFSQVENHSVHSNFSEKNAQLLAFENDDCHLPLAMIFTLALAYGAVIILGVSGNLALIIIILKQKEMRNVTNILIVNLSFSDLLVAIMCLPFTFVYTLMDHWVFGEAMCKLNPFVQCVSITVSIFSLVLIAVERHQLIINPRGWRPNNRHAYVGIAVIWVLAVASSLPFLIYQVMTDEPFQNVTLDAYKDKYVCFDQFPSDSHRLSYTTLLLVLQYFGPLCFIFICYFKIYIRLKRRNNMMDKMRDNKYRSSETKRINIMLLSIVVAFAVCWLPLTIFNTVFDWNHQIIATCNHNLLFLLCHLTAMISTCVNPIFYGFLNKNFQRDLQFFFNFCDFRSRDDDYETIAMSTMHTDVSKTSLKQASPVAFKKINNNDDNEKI

[26] = Luminescence Cell-Based Dose Response HTS to Identify Inhibitors of 5'UTR Stem-Loop Driven Prion Protein mRNA Translation in H4 Neuroglioblastoma Cells. [Related pubchem assays: 1827 (Project Summary), 1813 (Primary HTS)]; type: functional
[27] = ZM109 Env clade C HIV-1 fusion inhibitors, dose response, HeLa effector, CEM target cells, luciferase, cherry-pick (AID 652058); type: functional, cell-based

Dual specificity protein kinase CLK1, sequence (P49759 whole entry): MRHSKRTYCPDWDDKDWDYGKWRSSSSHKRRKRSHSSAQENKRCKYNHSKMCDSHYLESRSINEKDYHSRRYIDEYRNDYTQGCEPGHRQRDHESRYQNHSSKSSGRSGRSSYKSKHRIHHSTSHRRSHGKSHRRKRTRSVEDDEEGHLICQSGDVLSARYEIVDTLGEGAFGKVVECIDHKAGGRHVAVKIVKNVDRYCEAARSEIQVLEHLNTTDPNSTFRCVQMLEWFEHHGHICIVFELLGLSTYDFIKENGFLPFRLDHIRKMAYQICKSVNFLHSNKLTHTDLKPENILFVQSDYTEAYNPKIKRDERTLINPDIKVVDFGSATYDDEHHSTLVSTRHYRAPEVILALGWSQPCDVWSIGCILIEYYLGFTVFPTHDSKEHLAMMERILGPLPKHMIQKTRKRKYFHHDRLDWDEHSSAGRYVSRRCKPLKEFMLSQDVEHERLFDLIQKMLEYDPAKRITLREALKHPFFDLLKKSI

c1cncc(-c2nc(NCc3ccco3)c3ccccc3n2)c1
AC50 [1]: 17.9 µM (active)

Clc1ccc(Nc2nccc(-c3ccc4c(c3)OCO4)n2)cc1
AC50 [1]: 15.8 µM (active)

Cc1cc(-n2c(SCC(=O)NCCC3=CCCCC3)nc3nnc(C)c-3c2N)ccc1Cl
AC50 [2]: 17.1 µM (active)
EC50 [3]: 6.61 µM (active)
EC50 [4]: > 133 µM (inactive)
EC50 [5]: > 150 µM (inconclusive)
AC50 [6]: 7.33 µM (active)
EC50 [7]: 14 µM (active)
EC50 [8]: > 150 µM (not active)
AC50 [9]: 37.6 µM (active)

O=C(c1cc(-c2ccccc2)n[nH]1)N1CCc2c([nH]c3ccccc23)C1c1ccccn1 (stereo not given)
EC50 [10]: > 180 µM (inactive)
EC50 [11]: 26.3 µM (active)
EC50 [12]: 31.2 µM (active)

O=C(Nc1cc(S(=O)(=O)N2CCCCC2)ccc1Cl)c1ccccc1NS(=O)(=O)c1ccc(F)cc1
AC50 [13]: 3.42 µM (active)
EC50 [14]: 25.6 µM (not active)
IC50 [15]: 2 µM (active)
EC50 [4]: > 133 µM (inactive)
EC50 [16]: 13.7 µM (active)
AC50 [17]: 20.7 µM (active)
AC50 [18]: 6.21 µM (active)
AC50 [6]: 5.08 µM (active)
AC50 [19]: 32.9 µM (active)
EC50 [20]: 4.53 µM (active)
AC50 [21]: 28.4 µM (active)
EC50 [22]: 13.8 µM (active)
AC50 [23]: 10.8 µM (active)
IC50 [24]: 44.9 µM (active)
EC50 [25]: 12.7 µM (not active)
EC50 [26]: > 60 µM (not active)
AC50 [27]: 25.6 µM (active)
